Data published in patent publication US11505536B2, “Dihydroorotate dehydrogenase inhibitors” (Janssen Biotech, Inc., priority 2019, dated 2022).

Tests used:
human DHODH = human DHODH (Homo sapiens (Human), UniProt Q02127); test: DHODH Enzymatic Assay; format: biochemical; settings: purified human DHODH, DCIP absorbance, end-point mode; read-out: hDHODH IC50
Procedure, shortened: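 Purified human DHODH in […] HEPES pH 7.5, 150 mM NaCl, 0.5 mM EDTA, 0.1% Triton X-100; reaction started with substrate mix of 20 mM DHO, 5 mM CoQ6, 1 mM DCIP. End-point read as DCIP reduction (absorbance ~600 nm) after brequinar quench.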

[1] = system: MOLM-13 cells (human acute myeloid leukemia cells); test: MOLM-13 Cellular Assay; format: cell-based; settings: Homo sapiens, MOLM-13, 72 h, 72 hours exposure, cell viability by CellTiter-Glo
Procedure, shortened: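 MOLM-13 AML cells, seeded at 5,000/well in RPMI 1640 with 10% FBS, were treated with compounds right after seeding for 72 h at 37 °C, 5% CO2. Viability read by CellTiter-Glo luminescence.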

human DHODH, sequence (Q02127 whole entry): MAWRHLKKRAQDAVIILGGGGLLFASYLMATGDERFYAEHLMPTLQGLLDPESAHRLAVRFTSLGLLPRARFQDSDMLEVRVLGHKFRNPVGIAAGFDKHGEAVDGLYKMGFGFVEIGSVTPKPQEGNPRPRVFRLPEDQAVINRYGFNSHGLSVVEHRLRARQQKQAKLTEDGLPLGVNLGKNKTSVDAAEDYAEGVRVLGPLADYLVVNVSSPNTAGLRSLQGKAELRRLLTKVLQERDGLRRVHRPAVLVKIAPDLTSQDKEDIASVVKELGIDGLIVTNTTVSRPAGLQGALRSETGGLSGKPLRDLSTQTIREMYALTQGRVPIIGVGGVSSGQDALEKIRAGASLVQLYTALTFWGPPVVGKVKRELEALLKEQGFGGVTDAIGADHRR

Row | Structure (SMILES) | IC50 (human DHODH) [nM] | IC50 [1] [nM]
1 | CCn1c(CO)nn(-c2cc3c(C(C)C)cn(-c4ccnc(OC)c4C)c(=O)c3cc2F)c1=O [Example 129, 6-(4-Ethyl-3-(hydroxymethyl)-5-oxo-4,5-dihydro-1H-1,2,4-triazol-1-yl)-7-fluoro-4-isopropyl-2-(2-methoxy-3-methylpyridin-4-yl)isoquinolin-1(2H)-one] | 29.2 | 50
2 | CCn1c(CO)nn(-c2nc3c(C(C)C)cn(-c4ccccc4OC)c(=O)c3cc2F)c1=O [Example 130, 2-(4-Ethyl-3-(hydroxymethyl)-5-oxo-4,5-dihydro-1H-1,2,4-triazol-1-yl)-3-fluoro-8-isopropyl-6-(2-methoxyphenyl)-1,6-naphthyridin-5(6H)-one] | 0.885 | 0.9
3 | CCn1c(CO)nn(-c2cc3c(C(C)C)cn(-c4csnc4C)c(=O)c3cc2F)c1=O [Example 131, 6-(4-Ethyl-3-(hydroxymethyl)-5-oxo-4,5-dihydro-1H-1,2,4-triazol-1-yl)-7-fluoro-4-isopropyl-2-(3-methylisothiazol-4-yl)isoquinolin-1(2H)-one] | 33.7 | 50
4 | CCn1c(CO)nn(-c2cc3c(C(C)C)cn(-c4cnsc4C)c(=O)c3cc2F)c1=O [Example 132, 6-(4-Ethyl-3-(hydroxymethyl)-5-oxo-4,5-dihydro-1H-1,2,4-triazol-1-yl)-7-fluoro-4-isopropyl-2-(5-methylisothiazol-4-yl)isoquinolin-1(2H)-one] | 3.72 | 4
5 | CCn1c(CO)nn(-c2cc3c(C(C)C)cn(-c4cc(C)ncc4C)c(=O)c3cc2F)c1=O [Example 135, 2-(2,5-Dimethylpyridin-4-yl)-6-(4-ethyl-3-(hydroxymethyl)-5-oxo-4,5-dihydro-1H-1,2,4-triazol-1-yl)-7-fluoro-4-isopropylisoquinolin-1(2H)-one] | 6.93 | 50
6 | CCn1c(CO)nn(-c2cc3c(C(C)C)cn(-c4cnccc4C)c(=O)c3cc2F)c1=O [Example 136, 6-(4-Ethyl-3-(hydroxymethyl)-5-oxo-4,5-dihydro-1H-1,2,4-triazol-1-yl)-7-fluoro-4-isopropyl-2-(4-methylpyridin-3-yl)isoquinolin-1(2H)-one] | 4.79 | 8
7 | CCn1c(CO)nn(-c2cc3c(C(C)C)cn(-c4ccncc4C)c(=O)c3cc2F)c1=O [Example 137, 6-(4-Ethyl-3-(hydroxymethyl)-5-oxo-4,5-dihydro-1H-1,2,4-triazol-1-yl)-7-fluoro-4-isopropyl-2-(3-methylpyridin-4-yl)isoquinolin-1(2H)-one] | 8.08 | 8
8 | CCn1c(CO)nn(-c2cc3c(C(C)C)cn(-c4cccnc4C)c(=O)c3cc2F)c1=O [Example 138, 6-(4-Ethyl-3-(hydroxymethyl)-5-oxo-4,5-dihydro-1H-1,2,4-triazol-1-yl)-7-fluoro-4-isopropyl-2-(2-methylpyridin-3-yl)isoquinolin-1(2H)-one] | 80.4 | > 100
9 | CCn1c(CO)nn(-c2cc3c(C(C)C)cn(-c4cc(O)ncc4C)c(=O)c3cc2F)c1=O [Example 139, 6-(4-Ethyl-3-(hydroxymethyl)-5-oxo-4,5-dihydro-1H-1,2,4-triazol-1-yl)-7-fluoro-2-(2-hydroxy-5-methylpyridin-4-yl)-4-isopropylisoquinolin-1(2H)-one] | 35.4 | > 100
10 | CCn1c(CO)nn(-c2nc3c(C(C)C)cn(-c4ccccc4C(F)F)c(=O)c3cc2F)c1=O [Example 140] | 1.13 | 1
11 | CCn1c(CO)nn(-c2cc3c(C(C)C)cn(-c4ccnc(O)c4C)c(=O)c3cc2F)c1=O [Example 141, 6-(4-Ethyl-3-(hydroxymethyl)-5-oxo-4,5-dihydro-1H-1,2,4-triazol-1-yl)-7-fluoro-2-(2-hydroxy-3-methylpyridin-4-yl)-4-isopropylisoquinolin-1(2H)-one] | 10.5 | > 100
12 | [2H]C([2H])([2H])c1ccccc1-n1cc(C(C)C)c2nc(-n3nc(CO)n(CC)c3=O)c(F)cc2c1=O [Example 142, 2-(4-Ethyl-3-(hydroxymethyl)-5-oxo-4,5-dihydro-1H-1,2,4-triazol-1-yl)-3-fluoro-8-isopropyl-6-(o-D3-tolyl)-1,6-naphthyridin-5(6H)-one] | 0.623 | 0.4
